In patent EP2692724B1, “CHIRAL 3-HYDROXYPYRID-4-ONE DERIVATIVE, AND SYNTHESIS AND USE THEREOF” (Zhejiang University, priority 2011, dated 2012):
Where a name gives a salt, the structure may show the parent alone.

How the values were obtained:
^59Fe-Ferritin = test: Biological effect of iron chelators over 59Fe-Ferritin/Rat (iron excretion ability, oral); format: in vivo; details: for iron excretion ability compared with CP20: in vivo rat test, administered in equimolar amounts; for Iron Excretion (%): rat model, taken orally (intragastric) 1 h after tail vein injection of 59Fe-Ferritin, test ends after 24 h, n=5
Protocol: According to methods described by Pippard's research group [Blood 58: 685-692], use ^59Fe to label ferritin in rat liver. Isolate ^59Fe-labelled ferritin by the method described by Bjorklid and Helgeland. In the preparation process, the rats were injected intraperitoneally with iron dextran, and intravenous administration of red blood cells, in order to keep the plasma transferrin saturated. This method ensures that most of ^59Fe (III) is absorbed by the liver, so ^59Fe-ferritin with high specific radioactivity can be obtained.
Performance of one shot intraperitoneal injection of 15mg iron dextran to 350∼400 g rats. After one week, jugular vein cannula is performed and then a 24 h's rest. Then the second day, each rat is given packed red cells (2 mL/100g). After 24 h, each rat is injected via the jugular vein cannula with 200 µCi ^59FeCl solution (Amersham Life Science). ^59FeCl3 (1mCi) is diluted 0.5 mL citrate (50mM, pH 2.5). Each experiment employs 5 rats, total radiation is 1mCi. 24 h after isotopically labeled injection, the livers were removed from rats.
Homogenization of liver is processed in 4 vol. (w/v) 0.25M acetate buffer. The homogenate was heated to 75°C with stirring for 10min. After cooling to 4°C, remove solid protein by centrifugation at 2500 g for 15 min. Treat the supernatant that contains tissue iron protein with half saturated (NH4)2SO4, while cooling in ice water for 30 min. The precipitate obtained by centrifugation at 3500 g at 4°C for 15 min, is dissolved in 0.25M pH=4.8 acetate buffer. Undissolved precipitate is removed through a Pd-10 column (Sephadex®, G-25M, Pharmacia Biotech). The resulting solution is centrifuged at 100,000 g at 4°C for 2 h. The final precipitate is dissolved in 0.05M pH=7.4 phosphate buffer, and stored at 4°C. The purity of ^59Fe-ferritin and normal Ferritin (Sigma Chemical Co.) are compared by electrophoresis. Iron concentration of ferritin is tested by colorimetry [Biochem Mol. Biol Int 35(3): […]].
Starved rat was injected ^59Fe-Ferritin via tail vein, in order to label rat liver cells with ^59Fe. After 1 h, each rat is given an iron chelator via intragastric injection. Blank group is administered with water by lavage. Each rat is placed in a metabolic cage, collect urine and feces. All rats are given free access to food after oral administration 1h later, and are free to drink water during the whole experiment. Test ends after 24 h of the tail vein injection of ^59Fe-Ferritin. All rats are killed by the cervical dislocation, then the liver and gastrointestinal system (including its content and feces) are collected for ^59Fe quantification. Calculation for iron excretion ability of iron chelators with following formula: (1) Iron Excretion(%)=^59Fe Activity(intestinal track & feces)/(^59Fe Activity(intestinal tracks & feces)+ ^59Fe Activity(liver))×100% Table 1 Iron excretion ability of taking chiral 3-hydroxypyridine-4-one orally on rat model (n=5).

mice = test: Acute toxicity test in mice (maximum oral dosage); format: in vivo; details: suspension of maximum solubility in 0.5% CMC-Na, dose with no fatality
Protocol: Prepare suspension of maximum solubility of each compound with 0.5% CMC-Na. Maximum oral dosage to mice is 0.4 mL/10g. Blank group took the same volume 0.5% CMC-Na solution orally (blank group and test group has 4 mice each, 2 female and 2 male). […] Monitor reaction of animal right after drug administration, including appearance, activities, mental states, appetites, urea/feces and its color, fur, nose, eye, mouth, if there are any abnormal secretions and death situation, give timely autopsy to dead animals. If any obvious pathology of organs is found, perform histopathological inspection. Every inspection should be performed every 30∼60 min in the 1st day, then check once a day, record animal toxicity and death distribution. Table 2. Maximum dosage of a few 3-hydroxypyridin-4-one derivatives to mice.

[1] = reduced by glycosylation of the hydroxyl group at 3' position; cited from earlier work

Molecule | Iron Excretion (%) (^59Fe-Ferritin) | also measured
CCc1c(O)c(=O)ccn1[C@@H](C)CO [CN206, (S)-3-Hydroxy-1-(1-hydroxypropyl-2-)-2-ethylpyridine-4(1H)-one] | 16 | iron excretion ability compared with CP20 (^59Fe-Ferritin): several times better than CP20; Maximum dosage: Dosage(g/kg) (mice): 3.75 g/kg; Maximum dosage: Mole dosage(mmol/kg) (mice): 19.0 mmol/kg
CCc1c(O)c(=O)ccn1[C@@H](CO)Cc1ccccc1 [CN228, (R)-3-Hydroxy-1-(1-hydroxy-3-phenylpropyl-2-)-2-ethyl pyridine-4(1H)-one] | 22.3 | iron excretion ability compared with CP20 (^59Fe-Ferritin): several times better than CP20
3-Hydroxy-1-((2S)-1-hydroxy-3-methyl pentyl-2-)-2-ethyl pyridine-4(1H)-one hydrochloride [CN436] | 5.8 | –
Cc1c(O)c(=O)ccn1[C@H](CO)Cc1ccccc1 [CN326, (S)-3-Hydroxy-1-(1-hydroxy-3-phenylpropyl-2-)-2-methyl pyridine-4(1H)-one hydrochloride] | 12.8 | –
Cc1c(O)c(=O)ccn1[C@@H](CO)Cc1ccccc1 [CN128, (R)-3-Hydroxy-1-(1-hydroxy-3-benzylpropyl-2-)2-methyl pyridine-4(1H)-one] | 24.8 | iron excretion ability compared with CP20 (^59Fe-Ferritin): several times better than CP20
CCc1c(O)c(=O)ccn1[C@H](C)CO [CN408, (R)-3-Hydroxy-1-(1-hydroxy-3-propyl-2-)-2-ethyl pyridine-4(1H)-one hydrochloride] | 10.6 | –
Cc1c(O)c(=O)ccn1[C@@H](CO)C(C)C [CN318, (R)-3-Hydroxy-1-(1-hydroxy-3-methylbutyl-2-)-2-methyl pyridine-4(1H)-one hydrochloride] | 8.0 | –
3-Hydroxy-1-((2S)-1-hydroxy-3-methyl pentyl-2-)-2-methyl pyridine-4(1H)-one hydrochloride [CN336] | 10.8 | –
CCc1c(O)c(=O)ccn1[C@@H](CO)C(C)C [CN418, (R)-3-Hydroxy-1-(1-hydroxy-3-methylbutyl-2-)-2-ethyl pyridine-4(1H)-one hydrochloride] | 10.6 | –
CCc1c(O)c(=O)ccn1[C@H](CO)Cc1ccccc1 [CN426, (S)-3-Hydroxy-1-(1-hydroxy-3-phenylpropyl-2-)-2-ethyl pyridine-4(1H)-one hydrochloride] | 13.1 | –
Cc1c(O)c(=O)ccn1[C@H](CO)C(C)C [CN116, (S)-3-Hydroxy-1-(1-hydroxy-3-methylbutyl-2-)-2-methyl pyridine-4(1H)-one] | 18.7 | iron excretion ability compared with CP20 (^59Fe-Ferritin): several times better than CP20
Cc1c(O)c(=O)ccn1C [CP20, reference compound] | 11.4 | half-life [1]: 2∼3 h; Maximum dosage: Dosage(g/kg) (mice): 1.50 g/kg; Maximum dosage: Mole dosage(mmol/kg) (mice): 10.7 mmol/kg
CCc1c(O)c(=O)ccn1[C@H](CO)C(C)C [CN416, (S)-3-Hydroxy-1-(1-hydroxy-3-methylbutyl-2-)-2-ethyl pyridine-4(1H)-one hydrochloride] | 7.9 | –
(R)-3-Hydroxy-1-(1-hydroxy-3-propyl-2-)-2-methyl pyridine-4(1H)-one hydrochloride [CN308] | 6.5 | –
(S)-3-hydroxy-1-(1-hydroxy propyl-2-)-2-methyl pyridine-4(1H)-one hydrochloride [CN306] | 11.9 | –
